Results: article PMC9021288 (Nature Communications, 2022)
Values joined by “and” are separate entries in the source; they are usually repeats but may differ in a detail not shown here. Equal values may be shown once. Read-outs that look alike come from different tables or passages of the source.

Columns and labels:
Renal excretion in rats = assay type: in vivo, rat
Method: A blood sample from the saphenous vein was collected into heparinized capillary tubes at multiple intervals between 0.25 and 24 h after dosing. Subsequently, samples were spun down at 1640 g for 5-10 min at 4 °C within 30 min after collection and plasma was collected. […] Urine was collected following an intravenous dose in both rat and dog, allowing renal clearance to be estimated. Human renal clearance was estimated from dog renal clearance as previously described[40] and other human PK parameters were predicted using allometric scaling and/or in vitro clearance data. PK parameters were calculated by naïve pooled approach using WinNonLin software (Phoenix, version 6.3).

P. falciparum Dd2-B2 = test: 72-h flow cytometry IC50 assay, Dd2-B2 and resistant Dd2-B2; assay type: cell-based, Plasmodium falciparum
Method: Replication assays were performed using a SYBR Green method as described previously. Briefly, asynchronous parasites were diluted to 0.83% parasitemia, 3% hematocrit in 30 µl medium, and added to 30 µl of diluted compounds in medium (0.1% DMSO final concentration) in black 384-wells plates. After a 72-h incubation, 30 µl of SYBR Green diluted in lysis buffer was added according to the manufacturer’s protocol (Life Technologies). Fluorescence intensity was measured on a BioTek Synergy 2 Plate Reader after 1-h incubation and was normalized to a DMSO control (100% growth) and DHA- or epoxomicin-treatment (no growth). […] Parasite survival was assessed by flow cytometry on an Accuri C6 (BD Biosciences) with BD C6 Plus software using SYBR Green and MitoTracker Deep Red FM (Life Technologies) as nuclear stain and vital dye, respectively, and data were analyzed using FlowJo (10.5.0). […] Luminescence was measured after 72 h using the Renilla-Glo(R) Luciferase Assay System (Promega E2750) and the GlomAX® Discover Multimode Microplate Reader (Promega). The luminescence values were normalized to DMSO vehicle (100% growth) and 200 nM chloroquine-treated (no growth) samples as controls.

[1] = test system: human primary hepatocytes; test: Primary hepatocyte viability (CellTiter-Blue), human; assay type: cell-based; details: for %Viability: Human primary hepatocytes
Method: (§1) Safety studies were performed by commercial services using their standard protocols. […] Genotoxicity was investigated using the Ames test (Bacterial Reverse Mutation Assay) (Covance Laboratories Ltd, North Yorkshire, England). In vitro mammalian cell micronucleus screening assay was studied in human peripheral blood lymphocytes (BioReliance Corporation, Rockville, USA). Cardiotoxicity was determined against the hERG channel in an automated patch clamp assay using the Qpatch or against the hNaV 1.5, hKV 1.5 and hCaV 1.2 using a manual patch-clamp technique (Metrion Biosciences, Cambridge, UK). Cytotoxicity in human and rat primary hepatocytes was assessed using the CellTiter-Blue assay performed by commercial services (KaLy-Cell). The viability of HepG2 cells was monitored through the addition of 1 mM resazurin. Following 6 h incubation, the relative amount of reduced resazurin was detected in a fluorimeter and compared to the assay controls (vehicle: 0.1% DMSO and positive control: 10 µM puromycin).

[2] = Metabolite identification in dog plasma and urine; details: in vivo
rat primary hepatocytes = test: Primary hepatocyte viability (CellTiter-Blue), rat; assay type: cell-based; details: for %Viability: Rat primary hepatocytes
Method: as §1

[3] = test system: P. falciparum NF54 female gametocytes; test: Dual gamete formation assay, female; assay type: cell-based, Plasmodium falciparum; details: read-out: IC50 female gametocyte activation
Method: After a 48-h incubation, gamete formation was stimulated by a drop in temperature (from 37 °C to 26 °C), and the addition of xanthurenic acid (2.5 µM). At 20 min after induction, exflagellation was recorded by automated time-lapse microscopy. After data collection, the plate was returned to a 26 °C incubator and incubated for 24 h. Female gamete formation was assessed by live staining with a Cy3-labelled anti-Pfs25 monoclonal antibody (1:2222) and recorded by automated microscopy.

[4] = test system: human primary hepatocytes; test: Metabolite identification in human hepatocyte relay assay
Description: Briefly, cryopreserved human primary hepatocytes were thawed and cultured as described above.

[5] = test system: P. falciparum NF54 asexual blood-stage parasites; parameters: method as in earlier work; details: ref 15 (Schalkwijk et al.); cited from earlier work

C[C@@H](CNC(=O)[C@H](O)C(C)(C)CO)NC(=O)c1cc(F)c(F)cc1F [MMV693183]
Urine fraction (Renal excretion in rats; Mean): 0.36 | Observed renal plasma clearance (Renal excretion in rats; Rat): 7.7 mL/min/kg | Concentration corrected for dilution (Renal excretion in rats; rat urine after IV dosing, 400x diluted samples, individual rats R4, R5, R6): 27920.0 ng/mL and 106400.0 ng/mL and 15600.0 ng/mL | drug eliminated in urine (Renal excretion in rats; rats, i.v. 3 mg/kg): 36-40% | IC50 shift (P. falciparum Dd2-B2; 1x10^9 Dd2-B2 selected at 12-27 nM): 13 x | Parasite growth, dose-response (No drug = 100) (P. falciparum Dd2-B2; Dd2-B2, Log concentration (M) -8.61866): 46.9671 and 65.9341 and 69.186 and 60.7743 | Parasite growth, dose-response (No drug = 100) (P. falciparum Dd2-B2; Dd2-B2, Log concentration (M) -8.91969): 65.3709 and 69.9634 and 65.2132 and 74.7261 | Parasite growth, dose-response (No drug = 100) (P. falciparum Dd2-B2; Dd2-B2, Log concentration (M) -9.22072): 72.0216 and 80.9524 and 81.3953 and 76.7714 | Parasite growth, dose-response (No drug = 100) (P. falciparum Dd2-B2; Dd2-B2, Log concentration (M) -9.52175): 91.6867 and 88.6447 and 91.0853 and 95.8364 | Parasite growth, dose-response (No drug = 100) (P. falciparum Dd2-B2; Dd2-B2, Log concentration (M) -9.82278): 93.0054 and 90.8425 and 98.7403 and 95.3251 | IC50 (P. falciparum Dd2-B2; Dd2-B2, read-out: IC50): 1.79 nM and 2.73 nM and 3.55 nM and 3.05 nM | IC50 (P. falciparum Dd2-B2; Dd2-B2, read-out: mean IC50): 3 nM | Parasite growth, dose-response (No drug = 100) (P. falciparum Dd2-B2; FL1, Log concentration (M) -7.11351): 0 | Parasite growth, dose-response (No drug = 100) (P. falciparum Dd2-B2; FL1, Log concentration (M) -7.41454): 70.2458 and 55.9122 | Parasite growth, dose-response (No drug = 100) (P. falciparum Dd2-B2; FL1, Log concentration (M) -7.71557): 80.5951 and 111.824 | Parasite growth, dose-response (No drug = 100) (P. falciparum Dd2-B2; FL1, Log concentration (M) -8.0166): 100 and 101.689 | Parasite growth, dose-response (No drug = 100) (P. falciparum Dd2-B2; FL1, Log concentration (M) -8.31763): 93.5317 and 96.6216 | Parasite growth, dose-response (No drug = 100) (P. falciparum Dd2-B2; FL1, Log concentration (M) -8.61866): 96.119 and 101.689 | Parasite growth, dose-response (No drug = 100) (P. falciparum Dd2-B2; FL1, Log concentration (M) -8.91969): 78.0078 and 118.581 | Parasite growth, dose-response (No drug = 100) (P. falciparum Dd2-B2; FL1, Log concentration (M) -9.22072): 94.8254 and 105.068 | Parasite growth, dose-response (No drug = 100) (P. falciparum Dd2-B2; FL1, Log concentration (M) -9.52175): 101.294 and 83.1081 | Parasite growth, dose-response (No drug = 100) (P. falciparum Dd2-B2; FL1, Log concentration (M) -9.82278): 85.7697 and 115.203 | IC50 (P. falciparum Dd2-B2; FL1, read-out: IC50): 44.2 nM and 38.8 nM | Parasite growth, dose-response (No drug = 100) (P. falciparum Dd2-B2; FL2, Log concentration (M) -7.11351): 0 | Parasite growth, dose-response (No drug = 100) (P. falciparum Dd2-B2; FL2, Log concentration (M) -7.41454): 60.4288 and 62.4542 | Parasite growth, dose-response (No drug = 100) (P. falciparum Dd2-B2; FL2, Log concentration (M) -7.71557): 82.846 and 84.7985 | Parasite growth, dose-response (No drug = 100) (P. falciparum Dd2-B2; FL2, Log concentration (M) -8.0166): 96.8811 and 77.6557 | Parasite growth, dose-response (No drug = 100) (P. falciparum Dd2-B2; FL2, Log concentration (M) -8.31763): 88.499 and 88.6447 | Parasite growth, dose-response (No drug = 100) (P. falciparum Dd2-B2; FL2, Log concentration (M) -8.61866): 105.458 and 84.9817 | Parasite growth, dose-response (No drug = 100) (P. falciparum Dd2-B2; FL2, Log concentration (M) -8.91969): 80.5068 and 77.1062 | Parasite growth, dose-response (No drug = 100) (P. falciparum Dd2-B2; FL2, Log concentration (M) -9.22072): 101.365 and 80.4029 | Parasite growth, dose-response (No drug = 100) (P. falciparum Dd2-B2; FL2, Log concentration (M) -9.52175): 71.345 and 104.029 | Parasite growth, dose-response (No drug = 100) (P. falciparum Dd2-B2; FL2, Log concentration (M) -9.82278): 92.0078 and 88.4615 | IC50 (P. falciparum Dd2-B2; FL2, read-out: IC50): 40.7 nM and 41.7 nM | Parasite growth, dose-response (No drug = 100) (P. falciparum Dd2-B2; FL3, Log concentration (M) -7.11351): 0 | Parasite growth, dose-response (No drug = 100) (P. falciparum Dd2-B2; FL3, Log concentration (M) -7.41454): 54.4365 and 48.2063 | Parasite growth, dose-response (No drug = 100) (P. falciparum Dd2-B2; FL3, Log concentration (M) -7.71557): 83.9329 and 95.9641 | Parasite growth, dose-response (No drug = 100) (P. falciparum Dd2-B2; FL3, Log concentration (M) -8.0166): 96.6427 and 92.1525 | Parasite growth, dose-response (No drug = 100) (P. falciparum Dd2-B2; FL3, Log concentration (M) -8.31763): 96.6427 and 93.0493 | Parasite growth, dose-response (No drug = 100) (P. falciparum Dd2-B2; FL3, Log concentration (M) -8.61866): 96.1631 and 96.6368 | Parasite growth, dose-response (No drug = 100) (P. falciparum Dd2-B2; FL3, Log concentration (M) -8.91969): 103.118 and 89.9103 | Parasite growth, dose-response (No drug = 100) (P. falciparum Dd2-B2; FL3, Log concentration (M) -9.22072): 91.1271 and 102.466 | Parasite growth, dose-response (No drug = 100) (P. falciparum Dd2-B2; FL3, Log concentration (M) -9.52175): 106.954 and 82.7354 | Parasite growth, dose-response (No drug = 100) (P. falciparum Dd2-B2; FL3, Log concentration (M) -9.82278): 109.113 and 91.4798 | IC50 (P. falciparum Dd2-B2; FL3, read-out: IC50): 38.2 nM and 37.9 nM | %Viability ([1]; Lot R1323T, 0.1 µM): 98% | %Viability ([1]; Lot R1323T, 0.5 µM): 92% | %Viability ([1]; Lot R1323T, 1 µM): 88% | %Viability ([1]; Lot R1323T, 5 µM): 92% | %Viability ([1]; Lot R1323T, 10 µM): 99% | %Viability ([1]; Lot S1552T, 0.1 µM): 98% | %Viability ([1]; Lot S1552T, 0.5 µM): 98% | %Viability ([1]; Lot S1552T, 1 µM): 102% | %Viability ([1]; Lot S1552T, 5 µM): 97% | %Viability ([1]; Lot S1552T, 10 µM): 104% | IC50 ([1]; primary human hepatocytes): > 10000 nM | detected in Plasma [2]: Yes | detected in Urine [2]: Yes | %Viability (rat primary hepatocytes; Batch R14I19, 0.1 µM): 103% | %Viability (rat primary hepatocytes; Batch R14I19, 0.5 µM): 105% | %Viability (rat primary hepatocytes; Batch R14I19, 1 µM): 101% | %Viability (rat primary hepatocytes; Batch R14I19, 5 µM): 101% | %Viability (rat primary hepatocytes; Batch R14I19, 10 µM): 101% | %Viability (rat primary hepatocytes; Batch R17G25, 0.1 µM): 111% | %Viability (rat primary hepatocytes; Batch R17G25, 0.5 µM): 109% | %Viability (rat primary hepatocytes; Batch R17G25, 1 µM): 111% | %Viability (rat primary hepatocytes; Batch R17G25, 5 µM): 106% | %Viability (rat primary hepatocytes; Batch R17G25, 10 µM): 106% | IC50 (rat primary hepatocytes; primary rat hepatocytes): > 10000 nM | IC50 [3]: 12 nM | In vitro (MS response) [4]: 85%

CC(CNC(=O)C(O)C(C)(C)CO)NC(=O)CCc1ccccc1F (stereo in doubt) [MMV689258]
IC50 [5]: 5 nM
